Reference: PMC6207720, “Identification and antitumor activity of a novel inhibitor of the NIMA-related kinase NEK6” (Scientific Reports, 2018)

Legend:
NEK1 = molecular target: T1, NEK1 (Homo sapiens, UniProt Q96PY6); assay: Off-chip Mobility Shift Assay (MSA) profiling, NEK1; format: biochemical; details: ATP approximating Km
T1 sequence (Q96PY6 1-1258): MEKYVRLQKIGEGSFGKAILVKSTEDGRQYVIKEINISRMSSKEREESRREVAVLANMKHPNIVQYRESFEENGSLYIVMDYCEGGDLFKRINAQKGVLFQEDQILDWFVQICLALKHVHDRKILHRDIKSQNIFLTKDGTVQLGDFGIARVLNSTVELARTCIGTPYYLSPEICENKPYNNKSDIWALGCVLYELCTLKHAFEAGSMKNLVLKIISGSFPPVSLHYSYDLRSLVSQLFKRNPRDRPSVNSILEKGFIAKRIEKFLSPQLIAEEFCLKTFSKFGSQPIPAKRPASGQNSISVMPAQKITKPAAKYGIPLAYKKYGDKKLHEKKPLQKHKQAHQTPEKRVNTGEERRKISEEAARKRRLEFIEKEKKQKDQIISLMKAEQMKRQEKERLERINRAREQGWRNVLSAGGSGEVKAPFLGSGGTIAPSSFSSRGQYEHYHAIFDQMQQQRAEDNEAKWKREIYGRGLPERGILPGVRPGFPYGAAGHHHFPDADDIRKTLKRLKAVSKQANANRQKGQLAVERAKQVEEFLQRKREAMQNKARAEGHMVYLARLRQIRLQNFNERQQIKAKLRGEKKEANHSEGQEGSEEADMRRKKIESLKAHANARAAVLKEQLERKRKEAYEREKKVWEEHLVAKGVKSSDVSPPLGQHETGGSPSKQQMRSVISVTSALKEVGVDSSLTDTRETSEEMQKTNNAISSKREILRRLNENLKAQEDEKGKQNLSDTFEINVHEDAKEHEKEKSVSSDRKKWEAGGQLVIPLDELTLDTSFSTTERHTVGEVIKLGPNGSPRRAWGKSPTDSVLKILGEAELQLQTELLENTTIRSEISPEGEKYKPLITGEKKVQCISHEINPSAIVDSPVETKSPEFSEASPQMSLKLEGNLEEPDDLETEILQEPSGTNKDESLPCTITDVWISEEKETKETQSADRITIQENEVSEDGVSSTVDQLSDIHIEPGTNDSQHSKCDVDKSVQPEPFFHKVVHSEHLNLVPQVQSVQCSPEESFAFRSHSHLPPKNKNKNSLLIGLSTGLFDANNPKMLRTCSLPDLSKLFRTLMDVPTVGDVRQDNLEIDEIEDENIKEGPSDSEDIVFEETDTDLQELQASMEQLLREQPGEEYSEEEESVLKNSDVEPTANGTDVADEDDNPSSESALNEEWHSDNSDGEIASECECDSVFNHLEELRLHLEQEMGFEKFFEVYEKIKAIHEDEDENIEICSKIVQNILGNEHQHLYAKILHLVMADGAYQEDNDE
Method: Therefore, we decided to evaluate the selectivity of compound 8 against a panel of NEK kinases at 10 µM, using the technique of Off-chip Mobility shift assay. This concentration was chosen according to the guidelines proposed by Knight and Shokat, since the probability of off-target effects increases dramatically above 10 µM[36]. Furthermore, ATP concentration was set to approximate the Km,ATP for each kinase, so that the resulting selectivity profile directly reflects the intrinsic affinities of the inhibitor[37]. […] A major consequence of this substitution may be the redistribution of surface charges at the flexible activation loop resulting in an altered electrostatic potential and ability of NEK6 kinase to interact with other molecules.
The inhibitory activity of compounds 8 and 21 on NEK6 was also verified with MSA technique (Off-chip Mobility shift assay) (CARNA Biosciences Study ID: CBS170097, CARNA Biosciences, Kobe). […] PKR Inhibitor was used as positive control. For profiling study against NEK kinases (i.e. NEK1, NEK2, NEK6, NEK7, NEK9) (CARNA Biosciences Study ID: CBS170098), 8 was tested at 10 μM and ATP concentration approximating Km for each kinase. Assay condition for kinases are available on “Kinase profiling book” downloading by www.carnabio.com (https://www.carnabio.com/output/pdf/ProfilingProfilingBook_en.pdf).

HCT15 (colon) = assay: Cell-based cytotoxicity assay (ATPlite), HCT15; details: Homo sapiens, HCT-15, HCT15, 72 h, NA = not active (IC50 greater than 100 µM), read-out: IC50 Values (µM ± SEM)
Text: The following human carcinoma cell lines were used for the study: MDA-MB-231 and MCF-7 (breast cancer; ATCC, Sesto San Giovanni, MI), PEO1 and COV318 (ovarian cancer; ECACC, Salisbury, UK and ATCC), HCT-15 and SW948 (colon cancer; Public Health England, Salisbury, UK and ATCC), NCI-H1975 and NCI-H1299, (lung cancer; ATCC). Cells were routinely tested free of mycoplasma (MycoAlert mycoplasma detection kit, LONZA, Rockland, ME, USA) and validated by STR (Short Tandem Repeat) DNA profiling (BMR Genomics srl, PD). Cells were grown following supplier indication, in a fully humidified atmosphere of 5% CO2/95% air. All the reagents were purchased from Sigma-Aldrich (St. Louis, MO), if not otherwise specified.

Structure (SMILES): CC1=C(C#N)C(O)=NC(=O)/C1=C\c1ccc(-c2ccccc2)o1 [Compound 8, (5Z)-2-hydroxy-4-methyl-6-oxo-5-[(5-phenylfuran-2-yl)methylidene]-5,6-dihydropyridine-3-carbonitrile]
- inhibition at 10 µM (NEK1): 47%
- IC50 (HCT15 (colon)): 98.5 ± 0.5 µM
